Reference: publication PMC12015462, “Prioritization of novel anti-infective stilbene derivatives by combining metabolomic data organization and a stringent 3R-infection model in a knowledge graph” (RSC Advances, 2025)
pIC50: −log10 of the molar value. Where two headings read alike, the source gives them in different places.

Assays:
Type in all cases: cell-based
Mycobacterium marinum [1] = assay: Anti-biotic assay: M. marinum growth in broth (luminescence); settings: for activity at 0.411523 µM / activity at 1.23457 µM / activity at 3.7037 µM / activity at 11.1111 µM / activity at 33.3333 µM / activity at 100 µM: 72 h; for IC50: read-out: IC50 Mm in broth (μM)
Procedure: (§1) Since fractions were not weighed individually, the injection mass was used to calculate an average mass per fraction and thus a nominal mass concentration.
Plating bacteria and compounds or fractions was performed analogously to the infection assay described above. Bacteria growth was monitored with the Agilent BioTek H1 plate reader by recording luminescence at 32 °C.
The prepared plates were sealed and stored at 4 °C overnight. On the day of the experiment, nine 10 cm Petri dishes were infected (as described before) and grouped into three pools.

Dictyostelium discoideum = assay: Infection assay: growth of the host amoeba D. discoideum (fluorescence) in infection; settings: for activity at 0.411523 µM / activity at 1.23457 µM / activity at 3.7037 µM / activity at 11.1111 µM / activity at 33.3333 µM / activity at 100 µM: 72 h; for IC50: read-out: IC50 Dd in infection (μM)
Source text: as §1

Mycobacterium marinum [2] = assay: Infection assay: intracellular M. marinum growth (luminescence) in D. discoideum; settings: for activity at 0.411523 µM / activity at 1.23457 µM / activity at 3.7037 µM / activity at 11.1111 µM / activity at 33.3333 µM / activity at 100 µM: 72 h; for activity at 0.411523 µM: conc 0.411522634 uM; for activity at 1.23457 µM: conc 1.234567901 uM; for activity at 3.7037 µM: conc 3.703703704 uM; for activity at 11.1111 µM: conc 11.11111111 uM; for activity at 33.3333 µM: conc 33.33333333 uM; for activity at 100 µM: conc 100 uM; for pIC50: interpolated between the two concentrations closest to residual growth 0.5, top concentration 100 μM
Source text: as §1

[3] = read-out: mean (normalised M. marinum growth, Mm in broth)
[4] = read-out: median (normalised M. marinum growth, Mm in broth)
[5] = read-out: mean normalized residual growth, Dd in infection
[6] = read-out: median normalized residual growth, Dd in infection
[7] = vehicle control set at 1, read-out: mean normalized residual growth, Mm in infection
[8] = vehicle control set at 1, read-out: median normalized residual growth, Mm in infection

SMILES	activity at 0.411523 µM (Mycobacterium marinum [1]; [3])	activity at 1.23457 µM (Mycobacterium marinum [1]; [3])	activity at 3.7037 µM (Mycobacterium marinum [1]; [3])	activity at 11.1111 µM (Mycobacterium marinum [1]; [3])	activity at 33.3333 µM (Mycobacterium marinum [1]; [3])	activity at 100 µM (Mycobacterium marinum [1]; [3])	activity at 0.411523 µM (Mycobacterium marinum [1]; [4])	activity at 1.23457 µM (Mycobacterium marinum [1]; [4])	activity at 3.7037 µM (Mycobacterium marinum [1]; [4])	activity at 11.1111 µM (Mycobacterium marinum [1]; [4])	activity at 33.3333 µM (Mycobacterium marinum [1]; [4])	activity at 100 µM (Mycobacterium marinum [1]; [4])	activity at 0.411523 µM (Dictyostelium discoideum; [5])	activity at 1.23457 µM (Dictyostelium discoideum; [5])	activity at 3.7037 µM (Dictyostelium discoideum; [5])	activity at 11.1111 µM (Dictyostelium discoideum; [5])	activity at 33.3333 µM (Dictyostelium discoideum; [5])	activity at 100 µM (Dictyostelium discoideum; [5])	activity at 0.411523 µM (Dictyostelium discoideum; [6])	activity at 1.23457 µM (Dictyostelium discoideum; [6])	also measured
Oc1ccc(/C=C/c2cc(O)c3c(c2)O[C@H](c2ccc(O)cc2)[C@H]3c2cc(O)c3c(c2)O[C@H](c2ccc(O)cc2)[C@H]3c2cc(O)c3c(c2)O[C@H](c2ccc(O)cc2)[C@H]3c2cc(O)cc(O)c2)cc1 [Compound 8, Gnemonol B]	118%	111%	113%	119%	117%	114%	125%	116%	117%	115%	120%	115%	159%	139%	139%	120%	114%	51.3%	92.7%	85.7%	IC50 (Mycobacterium marinum [1]): > 100 µM; activity at 3.7037 µM (Dictyostelium discoideum; [6]): 92.1%; activity at 11.1111 µM (Dictyostelium discoideum; [6]): 88.6%; activity at 33.3333 µM (Dictyostelium discoideum; [6]): 81.5%; activity at 100 µM (Dictyostelium discoideum; [6]): 33.4%; IC50 (Dictyostelium discoideum): 66.7 µM; activity at 0.411523 µM (Mycobacterium marinum [2]; [7]): 132%; activity at 0.411523 µM (Mycobacterium marinum [2]; [8]): 146%; activity at 1.23457 µM (Mycobacterium marinum [2]; [7]): 105%; activity at 1.23457 µM (Mycobacterium marinum [2]; [8]): 94.6%; activity at 3.7037 µM (Mycobacterium marinum [2]; [7]): 127%; activity at 3.7037 µM (Mycobacterium marinum [2]; [8]): 144%; activity at 11.1111 µM (Mycobacterium marinum [2]; [7]): 124%; activity at 11.1111 µM (Mycobacterium marinum [2]; [8]): 128%; activity at 33.3333 µM (Mycobacterium marinum [2]; [7]): 112%; activity at 33.3333 µM (Mycobacterium marinum [2]; [8]): 117%; activity at 100 µM (Mycobacterium marinum [2]; [7]): 61%; activity at 100 µM (Mycobacterium marinum [2]; [8]): 45.3%; pIC50 (Mycobacterium marinum [2]): 4.18
Oc1ccc(/C=C/c2cc(O)c3c(c2)O[C@@H](c2ccc(O)cc2)[C@@H]3c2cc(O)c3c(c2)O[C@@H](c2ccc(O)cc2O)[C@H]3c2cc(O)cc(O)c2)cc1 [Compound 4, (−)-Gnetoline A]	115%	113%	113%	112%	110%	99.3%	112%	115%	115%	116%	108%	99.5%	146%	109%	106%	88.5%	79%	-10.4%	96.5%	84.4%	IC50 (Mycobacterium marinum [1]): > 100 µM; activity at 3.7037 µM (Dictyostelium discoideum; [6]): 85.1%; activity at 11.1111 µM (Dictyostelium discoideum; [6]): 79.5%; activity at 33.3333 µM (Dictyostelium discoideum; [6]): 79.5%; activity at 100 µM (Dictyostelium discoideum; [6]): 38.1%; IC50 (Dictyostelium discoideum): 66.7 µM; activity at 0.411523 µM (Mycobacterium marinum [2]; [7]): 153%; activity at 0.411523 µM (Mycobacterium marinum [2]; [8]): 139%; activity at 1.23457 µM (Mycobacterium marinum [2]; [7]): 173%; activity at 1.23457 µM (Mycobacterium marinum [2]; [8]): 160%; activity at 3.7037 µM (Mycobacterium marinum [2]; [7]): 176%; activity at 3.7037 µM (Mycobacterium marinum [2]; [8]): 171%; activity at 11.1111 µM (Mycobacterium marinum [2]; [7]): 139%; activity at 11.1111 µM (Mycobacterium marinum [2]; [8]): 135%; activity at 33.3333 µM (Mycobacterium marinum [2]; [7]): 88.4%; activity at 33.3333 µM (Mycobacterium marinum [2]; [8]): 86.1%; activity at 100 µM (Mycobacterium marinum [2]; [7]): 12.2%; activity at 100 µM (Mycobacterium marinum [2]; [8]): 17.7%; pIC50 (Mycobacterium marinum [2]): 4.18
Oc1ccc(/C=C/c2cc(O)c3c(c2)O[C@@H](c2ccc(O)cc2O)[C@@H]3c2cc(O)cc(O)c2)cc1 (relative stereo) [Compound 1, (+)-Gnetin D]	121%	119%	118%	111%	110%	102%	120%	116%	117%	110%	110%	102%	161%	111%	113%	81.5%	58.3%	47.7%	94.2%	88.8%	activity at 3.7037 µM (Dictyostelium discoideum; [6]): 85.1%; activity at 11.1111 µM (Dictyostelium discoideum; [6]): 80.3%; activity at 33.3333 µM (Dictyostelium discoideum; [6]): 86.2%; activity at 100 µM (Dictyostelium discoideum; [6]): 82.6%; IC50 (Dictyostelium discoideum): > 100 µM; activity at 0.411523 µM (Mycobacterium marinum [2]; [7]): 93.5%; activity at 0.411523 µM (Mycobacterium marinum [2]; [8]): 93.7%; activity at 1.23457 µM (Mycobacterium marinum [2]; [7]): 114%; activity at 1.23457 µM (Mycobacterium marinum [2]; [8]): 117%; activity at 3.7037 µM (Mycobacterium marinum [2]; [7]): 153%; activity at 3.7037 µM (Mycobacterium marinum [2]; [8]): 154%; activity at 11.1111 µM (Mycobacterium marinum [2]; [7]): 171%; activity at 11.1111 µM (Mycobacterium marinum [2]; [8]): 172%; activity at 33.3333 µM (Mycobacterium marinum [2]; [7]): 168%; activity at 33.3333 µM (Mycobacterium marinum [2]; [8]): 169%; activity at 100 µM (Mycobacterium marinum [2]; [7]): 86.4%; activity at 100 µM (Mycobacterium marinum [2]; [8]): 83.4%; pIC50 (Mycobacterium marinum [2]): < 4.00
